Laboratory results reported in ChEMBL document CHEMBL2010660, “Synthesis, SAR and biological evaluation of 1,6-disubstituted-1H-pyrazolo[3,4-d]pyrimidines as dual inhibitors of Aurora kinases and CDK1” (Bioorg Med Chem Lett, 2012).
Active and inactive are the calls of the source. The rule behind the calls is not given here.

Tests used:
HCT-116 [1] = assay: Cytotoxicity against human HCT116 cells after 5 days by MTS assay; type: functional, cell-based; details: HCT-116, 120 h
Aurora kinase A = molecular target: T1, Aurora kinase A (Homo sapiens, UniProt O14965); assay: Inhibition of aurora A kinase
T1 sequence (O14965 whole entry): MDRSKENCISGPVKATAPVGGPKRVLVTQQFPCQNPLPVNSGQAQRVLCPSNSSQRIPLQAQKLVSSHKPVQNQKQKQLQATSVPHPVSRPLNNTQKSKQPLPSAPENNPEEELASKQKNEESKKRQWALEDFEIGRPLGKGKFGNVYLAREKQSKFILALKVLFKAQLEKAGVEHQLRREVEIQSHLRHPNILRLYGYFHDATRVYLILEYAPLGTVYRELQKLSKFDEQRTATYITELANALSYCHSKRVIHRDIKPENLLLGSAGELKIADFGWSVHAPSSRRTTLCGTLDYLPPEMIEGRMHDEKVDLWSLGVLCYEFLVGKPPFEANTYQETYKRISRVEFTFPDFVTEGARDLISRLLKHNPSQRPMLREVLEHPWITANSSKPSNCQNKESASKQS

Aurora kinase B [2] = molecular target: T2, Aurora kinase B (Homo sapiens, UniProt Q96GD4); assay: Inhibition of aurora B kinase
T2 sequence (Q96GD4 whole entry): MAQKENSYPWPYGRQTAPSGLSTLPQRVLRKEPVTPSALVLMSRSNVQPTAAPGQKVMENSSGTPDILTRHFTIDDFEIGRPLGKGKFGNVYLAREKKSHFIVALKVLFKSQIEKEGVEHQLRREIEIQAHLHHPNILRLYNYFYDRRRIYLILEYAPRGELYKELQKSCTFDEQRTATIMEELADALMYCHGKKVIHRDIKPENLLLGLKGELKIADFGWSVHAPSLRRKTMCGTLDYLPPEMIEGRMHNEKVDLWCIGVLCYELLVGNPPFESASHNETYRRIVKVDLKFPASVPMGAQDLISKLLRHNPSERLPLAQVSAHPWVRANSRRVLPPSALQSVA

[3] = molecular target: Cyclin-dependent kinase 1 (Homo sapiens, UniProt P06493); assay: Inhibition of CDK1
Chain of Cyclin-dependent kinase 1 (P06493 whole entry): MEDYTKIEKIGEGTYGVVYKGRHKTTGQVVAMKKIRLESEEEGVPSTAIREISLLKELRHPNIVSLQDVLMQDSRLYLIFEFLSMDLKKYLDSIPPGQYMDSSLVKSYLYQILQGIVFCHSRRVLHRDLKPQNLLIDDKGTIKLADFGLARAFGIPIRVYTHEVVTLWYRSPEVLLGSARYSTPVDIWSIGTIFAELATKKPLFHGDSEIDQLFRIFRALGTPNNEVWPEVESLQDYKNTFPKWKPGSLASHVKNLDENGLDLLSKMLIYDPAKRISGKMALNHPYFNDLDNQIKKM

HCT-116 [4] = assay: Cell cycle arrest in human HCT116 cells assessed as minimum concentration required for G2/M versus G1 peak ratio over 2; type: functional
[5] = Metabolic stability in mouse liver microsome assessed as ratio of clearance to hepatic blood flow; type: ADME; details: liver microsomes, read-out: QH
[6] = Toxicity in human BMNC assessed as granulocyte/monocyte colony forming units ratio after 14 days by microscopic analysis; details: 336 h
[7] = molecular target: T3, Aurora kinase A (Homo sapiens) (UniProt O14965); assay: Inhibition of aurora A kinase phosphorylation in human K562 cells at 0.003 to 1 uM by Western blot analysis; type: cell-based
T3 sequence (whole entry): T1 sequence (O14965 whole entry)

Aurora kinase B [8] = molecular target: T2, Aurora kinase B; assay: Inhibition of aurora B kinase phosphorylation in human K562 cells at 0.003 to 1 uM by Western blot analysis; type: cell-based
[9] = Half life in mouse at 25 mg/kg, ip; type: ADME, organism-based; set-up: dose 25 mg/kg, route intraperitoneal; details: in vivo
[10] = AUC in mouse at 25 mg/kg, ip; type: ADME, organism-based; set-up: dose 25 mg/kg, route intraperitoneal; details: plasma
[11] = Clearance in mouse at 25 mg/kg, ip; type: ADME, organism-based; set-up: dose 25 mg/kg, route intraperitoneal; details: in vivo
Mus musculus [12] = assay: Apparent volume of distribution in mouse at 25 mg/kg, ip; type: ADME, organism-based; set-up: dose 25 mg/kg, route intraperitoneal; details: in vivo
Rattus norvegicus [13] = assay: Half life in rat at 4 mg/kg, iv; type: ADME, organism-based; set-up: dose 4 mg/kg, route intravenous; details: in vivo
[14] = AUC in rat at 4 mg/kg, iv; type: ADME, organism-based; set-up: dose 4 mg/kg, route intravenous; details: plasma
Rattus norvegicus [15] = assay: Apparent volume of distribution in rat at 4 mg/kg, iv; type: ADME, organism-based; set-up: dose 4 mg/kg, route intravenous; details: in vivo
Mus musculus [16] = assay: Inhibition of CDK1 in mouse serum assessed as decrease in histone H1 phosphorylation at 25 mg/kg, ip measured after 2 hrs; type: functional; details: route intraperitoneal
Mus musculus [17] = assay: Inhibition of CDK1 in mouse serum assessed as decrease in histone H3 phosphorylation at 25 mg/kg, ip measured after 2 hrs; type: functional; details: route intraperitoneal
Mus musculus [18] = assay: Inhibition of aurora A kinase in mouse assessed as increase in histone H3 phosphorylation at 25 mg/kg, ip measured after 6 hrs; type: functional, organism-based; set-up: dose 25 mg/kg
Mus musculus [19] = assay: Inhibition of aurora A in mouse assessed as increase in histone H3 phosphorylation at 25 mg/kg, ip measured after 9 hrs; type: functional, organism-based; set-up: dose 25 mg/kg
HCT-116 [20] = assay: Antitumor activity against human HCT116 cells xenografted in nu/nu mouse assessed as tumor growth inhibition at 12.5 to 40 mg/kg, ip qd for 21 days; type: functional; details: dose mg/kg 12.5-40; route intraperitoneal
Mus musculus [21] = assay: Toxicity in nu/nu mouse xenografted with human HCT116 cells assessed as weight loss at 12.5 to 40 mg/kg, ip qd for 21 days; type: organism-based, HCT-116; set-up: dose 12.5-40 mg/kg, route intraperitoneal; details: in vivo, 504 h
Mus musculus [22] = assay: Toxicity in nu/nu mouse xenografted with human HCT116 cells assessed as reluctance to move at 12.5 to 40 mg/kg, ip qd for 21 days; type: organism-based, HCT-116; set-up: dose 12.5-40 mg/kg, route intraperitoneal; details: in vivo, 504 h
Mus musculus [23] = assay: Toxicity in nu/nu mouse xenografted with human HCT116 cells assessed as hunched posture at 12.5 to 40 mg/kg, ip qd for 21 days; type: organism-based, HCT-116; set-up: dose 12.5-40 mg/kg, route intraperitoneal; details: in vivo, 504 h
Mus musculus [24] = assay: Toxicity in nu/nu mouse xenografted with human HCT116 cells assessed as mortality at 12.5 to 40 mg/kg, ip qd for 21 days; type: organism-based, HCT-116; set-up: dose 12.5-40 mg/kg, route intraperitoneal; details: in vivo, 504 h

SMILES | IC50 (HCT-116 [1]) [nM] | IC50 (Aurora kinase A) [nM] | IC50 (Aurora kinase B [2]) [nM] | IC50 [3] [nM] | Activity (HCT-116 [4]) [µM] | hepatic extraction ratio [5] | further results
O=C1N=C(NCc2cccs2)S/C1=C\c1ccc2ncccc2c1 | 3200 |  |  |  |  |  | 
CN(C)C(=O)[C@@H]1CCCN1C(=O)c1cc(Nc2ncc3cnn([C@@H]4C[C@H]5C[C@H]5C4)c3n2)cn1C | 160 | 19 | 4 | 1700 | 0.1 |  | 
Cn1cc(Nc2ncc3cnn(C4C5CC6CC(C5)CC4C6)c3n2)cc1C(N)=O (stereo not given) | 270 | 25 | 18 | 38 | 0.3 | 0.89 | 
Cn1cc(Nc2ncc3cnn([C@@H]4CC[C@H]5CCC[C@H]54)c3n2)cc1C(N)=O | 66 | 13 | 22 | 13 | 0.1 | 0.85 | 
Cn1cc(Nc2ncc3cnn([C@@H]4C[C@H]5C[C@H]5C4)c3n2)cc1C(=O)N1CCC[C@H]1CN1CCCC1 | 11 | 10 | 5 | 47 | 0.03 |  | 
COC[C@H]1CCCN1C(=O)c1cc(Nc2ncc3cnn([C@@H]4C[C@H]5C[C@H]5C4)c3n2)cn1C | 60 | 16 | 6 | 150 | 0.065 |  | 
CC(C)n1ncc2cnc(Nc3cc(C(N)=O)n(C)c3)nc21 | 1000 | 230 | 38 | 160 | 1 | 0.27 | 
Cn1cc(Nc2ncc3cnn(C4CCCCCC4)c3n2)cc1C(N)=O | 140 | 87 | 23 | 15 | 0.23 | 0.87 | 
O=C(O)c1ccc(Nc2ncc3c(n2)-c2ccc(Cl)cc2C(c2c(F)cccc2F)=NC3)cc1 [MLN-8054] | 690 |  |  |  |  |  | 
Cn1cc(Nc2ncc3cnn([C@@H]4C[C@H]5C[C@H]5C4)c3n2)cc1C(=O)N1CCC[C@H]1CN1CCOCC1 | 8 | 3 | 4 | 21 | 0.017 |  | 
Cn1cc(Nc2ncc3cnn([C@@H]4C[C@H]5C[C@H]5C4)c3n2)cc1C(N)=O | 79 | 17 | 4 | 24 | 0.1 | 0.69 | 
Cn1cc(Nc2ncc3cnn([C@@H]4C[C@H]5C[C@H]5C4)c3n2)cc1C(=O)N1CCCC1 | 95 | 17 | 40 | 41 | 0.1 |  | 
Cn1cc(Nc2ncc3cnn(C4CCC(C)(C)CC4)c3n2)cc1C(N)=O | 100 | 30 | 5 | 24 | 0.1 | 0.92 | 
CNC[C@@H]1CCCN1C(=O)c1cc(Nc2ncc3cnn([C@@H]4C[C@H]5C[C@H]5C4)c3n2)cn1C | 150 | 80 | 50 | 1200 | 0.3 |  | 
Cn1cc(Nc2ncc3cnn([C@H]4CC[C@H]5CCC[C@H]54)c3n2)cc1C(N)=O | 230 | 21 | 12 | 16 | 0.3 | 0.76 | 
Cn1cc(Nc2ncc3cnn(C4CCC5(CC5)C4)c3n2)cc1C(N)=O (stereo not given) | 290 | 150 | 19 | 50 | 0.65 | 0.89 | 
Cn1cc(Nc2ncc3cnn([C@@H]4C[C@H]5C[C@H]5C4)c3n2)cc1C(=O)N1CCC[C@@H]1CO | 170 | 100 | 36 | 150 | 0.1 |  | 
COC[C@@H]1CCCN1C(=O)c1cc(Nc2ncc3cnn([C@@H]4C[C@H]5C[C@H]5C4)c3n2)cn1C | 10 | 4 | 5 | 22 | 0.03 |  | Ratio [6]: 32; inhibition [7]: Active; inhibition (Aurora kinase B [8]): Active; half-life [9]: 1 h; AUC [10]: 6420 ng·h/mL; CL/F [11]: 65 mL/min/kg; Vz (Mus musculus [12]): 3 L/kg; t1/2 (Rattus norvegicus [13]): 5 h; AUC [14]: 1230 ng·h/mL; Vz (Rattus norvegicus [15]): 5 L/kg; inhibition in vivo at 25 mg/kg (Mus musculus [16]): 60%; inhibition in vivo at 25 mg/kg (Mus musculus [17]): 90%; inhibition (Mus musculus [18]): Active; inhibition (Mus musculus [19]): Active; TGI (HCT-116 [20]): 30%; Activity (Mus musculus [21]): 2%; Activity (Mus musculus [22]): Toxic; Activity (Mus musculus [23]): Toxic; Activity (Mus musculus [24]): Toxic
Cn1cc(Nc2ncc3cnn([C@@H]4C[C@H]5C[C@H]5C4)c3n2)cc1C(=O)N1CCC[C@@H]1CN1CCOCC1 | 24 | 1.5 | 4 | 390 | 0.03 |  | 
Cn1cc(Nc2ncc3cnn([C@@H]4C[C@H]5C[C@H]5C4)c3n2)cc1C(=O)N1CCC[C@H]1C(N)=O | 47 | 6 | 4 | 10 | 0.03 |  | 
C[C@@H]1CCCN1C(=O)c1cc(Nc2ncc3cnn([C@@H]4C[C@H]5C[C@H]5C4)c3n2)cn1C | 130 | 2 | 4 | 40 | 0.03 |  | 
Cn1cc(Nc2ncc3cnn([C@@H]4C[C@H]5C[C@H]5C4)c3n2)cc1C(=O)N1CCC[C@H]1CO | 18 | 4 | 3 | 10 | 0.01 |  | 
Cn1cc(Nc2ncc3cnn(C4CCC5(CC4)CC5)c3n2)cc1C(N)=O | 120 | 40 | 5 | 19 | 0.3 | 0.89 | 
